Data published in patent publication US12121514B2, “Nonselective metabotropic glutamate receptor activators for treatment of attention deficit disorder and 22Q syndrome” (THE CHILDREN'S HOSPITAL OF PHILADELPHIA, priority 2015, dated 2024).
Where “and” joins values, the source holds several entries; their conditions need not be identical. Equal values may be shown once.

Test system: adolescent subjects with ADHD and at least one genetic alteration in an mGluR network gene
Assay: Vanderbilt ADHD score (items 1-18, parent), Phase Ib trial of NFC-1
Assay type: in vivo, human
From the text: The Vanderbilt Rating Scale is a measure that can be completed by parents or teachers (separate forms, see Vanderbilt Rating Scale Parents and Vanderbilt Rating Scale Teachers). The Vanderbilt scale rates the child's behavior on items such as attention, finishing tasks, hyperactivity, difficulty waiting, and measures of conduct or oppositional defiant disorders—as well as measures of overall school performance and interactions with others. The first 18 items on the Vanderbilt scale correspond to those of the ADHD Rating Scale IV above while the Vanderbilt scale also includes items 19-47 related to other mental disorders including ODD (items 19-26), conduct disorder (items 27-40), anxiety (items 41, 42, and 47), and depression (items 43-46). Each of the behavioral assessment items on the Vanderbilt Scale are rated 0, 1, 2, or 3, with 0=never occurring; 1=occasionally, 2=often, and 3=very often. Thus, the ADHD Rating Scale IV, ADHD Rating Scale V, and items 1-18 of the Vanderbilt Rating Scale are equivalent scales, while additional items on the Vanderbilt Scale assess co-morbid phenotypes and disorders.
Each of the items are rated on a scale of 0, 1, 2, or 3, with 0=never; 1=occasionally, 2=often, and 3=very often. A total score of 0 to 54 is computed based on the answers to the 18 questions.
As used herein an “ADHD rating scale score,” “ADHD score” or “Vanderbilt ADHD score” are used interchangeably to refer to the computed score of the 18 items of the ADHD Rating Scale IV or V or the first 18 items of the Vanderbilt Rating Scale in any of their associated versions, e.g., for parent, teacher, or clinician to complete, and for a pediatric subject or adult subject. Clinical trials may assess the impact of drug or placebo on the ADHD score or Vanderbilt ADHD score (i.e. the score of 0 to 54 based on the first 18 items in the ADHD or Vanderbilt rating scale). In some cases, results of a clinical trial population may be analyzed by comparing the average score or a percentage change in score over time of administration of drug.
An open-label Phase Ib clinical trial was initiated to investigate the safety, pharmacokinetics and efficacy of NFC-1 (fasoracetam monohydrate) in adolescent subjects between the ages of 12 and 17 previously diagnosed with ADHD who also had at least one genetic alteration in an mGluR network gene.
Dose-escalation phase of the trial followed the PK and initial safety assessment and ran over a 5-week period. During week 1, all subjects were administered placebo capsules twice daily. After one week of placebo treatment, patients were started on 50 mg bid NFC-1 for 1 week. If safety and responsiveness data from prior dose level of fasoracetam indicated it was appropriate, subjects were then escalated to the next higher dose (100, 200, or 400 mg). […] Of the 30 trial subjects, 3 received a maximum dose of 100 mg, 9 received a maximum dose of 200 mg, and the remaining 18 received a maximum dose of 400 mg.
All efficacy assessments, except actigraphy, were made at study enrollment (“enrollment baseline”) and again, including actigraphy, once-per-week for the placebo week (“week 1” or “placebo baseline”) and at each of the 4 weeks of NFC-1 treatment. These efficacy measures include items 1-18 of the Vanderbilt scale assessing symptoms related to inattentiveness and hyperactivity-impulsiveness as well as additional questions 19-47 of the Vanderbilt scale assessing other behavioral symptoms (conducted by parent), actigraphy for quantitative measurement of activity, Quotient® ADHD test for objective measurement of micro-motion and shifts in attention state, PERMP-Math test, and CGI-I and CGI-S for assessment of global functioning. […]

[1] = relative to placebo (week 1) baseline, Tier 3, Week 3, up to 100 mg bid
[2] = relative to placebo (week 1) baseline, Tier 3, Week 4, 200 mg bid
[3] = relative to placebo (week 1) baseline, Tier 3, Week 4, up to 200 mg bid
[4] = relative to placebo (week 1) baseline, Tier 3, Week 5, 400 mg bid
[5] = relative to placebo (week 1) baseline, Tier 3, Week 5, up to 400 mg bid
[6] = relative to pre-study (enrollment) baseline, Overall, Week 2, 50 mg bid
[7] = relative to pre-study (enrollment) baseline, Overall, Week 3, 100 mg bid
[8] = relative to pre-study (enrollment) baseline, Overall, Week 3, up to 100 mg bid
[9] = relative to pre-study (enrollment) baseline, Overall, Week 4, 200 mg bid
[10] = relative to pre-study (enrollment) baseline, Overall, Week 4, up to 200 mg bid
[11] = relative to pre-study (enrollment) baseline, Overall, Week 5, 400 mg bid
[12] = relative to pre-study (enrollment) baseline, Tier 1, Week 2, 50 mg bid
[13] = relative to pre-study (enrollment) baseline, Tier 1, Week 3, 100 mg bid
[14] = relative to pre-study (enrollment) baseline, Tier 1, Week 3, up to 100 mg bid
[15] = relative to pre-study (enrollment) baseline, Tier 1, Week 4, 200 mg bid

SMILES: O=C1CC[C@H](C(=O)N2CCCCC2)N1 [NFC-1, fasoracetam monohydrate]
- Percent of subjects demonstrating robust improvement in Vanderbilt ADHD score (at least 40% decrease) [1]: 0%
- Percent of subjects with improvement in Vanderbilt ADHD score (at least 25% decrease) [1]: 20%
- Percent of subjects completing the dose escalation to 400 mg bid that show improvement in Vanderbilt ADHD scores (at least 25% decrease) [2]: 0%
- Percent of subjects completing the dose escalation to 400 mg bid that show robust improvement in Vanderbilt ADHD scores (at least 40% decrease) [2]: 0%
- Percent of subjects demonstrating robust improvement in Vanderbilt ADHD score (at least 40% decrease) [3]: 0%
- Percent of subjects with improvement in Vanderbilt ADHD score (at least 25% decrease) [3]: 0%
- Percent of subjects completing the dose escalation to 400 mg bid that show improvement in Vanderbilt ADHD scores (at least 25% decrease) [4]: 0%
- Percent of subjects completing the dose escalation to 400 mg bid that show robust improvement in Vanderbilt ADHD scores (at least 40% decrease) [4]: 0%
- Percent of subjects demonstrating robust improvement in Vanderbilt ADHD score (at least 40% decrease) [5]: 0%
- Percent of subjects with improvement in Vanderbilt ADHD score (at least 25% decrease) [5]: 0%
- Percent of subjects completing the dose escalation to 400 mg bid that show improvement in Vanderbilt ADHD scores (at least 25% decrease) [6]: 41%
- Percent of subjects completing the dose escalation to 400 mg bid that show robust improvement in Vanderbilt ADHD scores (at least 40% decrease) [6]: 35%
- Percent of subjects demonstrating robust improvement in Vanderbilt ADHD score (at least 40% decrease) [6]: 32%
- Percent of subjects with improvement in Vanderbilt ADHD score (at least 25% decrease) [6]: 43%
- Percent of subjects completing the dose escalation to 400 mg bid that show improvement in Vanderbilt ADHD scores (at least 25% decrease) [7]: 53%
- Percent of subjects completing the dose escalation to 400 mg bid that show robust improvement in Vanderbilt ADHD scores (at least 40% decrease) [7]: 24%
- Percent of subjects demonstrating robust improvement in Vanderbilt ADHD score (at least 40% decrease) [8]: 36%
- Percent of subjects with improvement in Vanderbilt ADHD score (at least 25% decrease) [8]: 54%
- Percent of subjects completing the dose escalation to 400 mg bid that show improvement in Vanderbilt ADHD scores (at least 25% decrease) [9]: 53%
- Percent of subjects completing the dose escalation to 400 mg bid that show robust improvement in Vanderbilt ADHD scores (at least 40% decrease) [9]: 35%
- Percent of subjects demonstrating robust improvement in Vanderbilt ADHD score (at least 40% decrease) [10]: 43%
- Percent of subjects with improvement in Vanderbilt ADHD score (at least 25% decrease) [10]: 68%
- Percent of subjects completing the dose escalation to 400 mg bid that show improvement in Vanderbilt ADHD scores (at least 25% decrease) [11]: 82%
- Percent of subjects completing the dose escalation to 400 mg bid that show robust improvement in Vanderbilt ADHD scores (at least 40% decrease) [11]: 47%
- Percent of subjects with improvement in Vanderbilt ADHD score (at least 25% decrease) (relative to pre-study (enrollment) baseline, Overall, Week 5, up to 400 mg bid, monohydrate): 78% and 75-80%
- Percent of subjects completing the dose escalation to 400 mg bid that show improvement in Vanderbilt ADHD scores (at least 25% decrease) [12]: 56%
- Percent of subjects completing the dose escalation to 400 mg bid that show robust improvement in Vanderbilt ADHD scores (at least 40% decrease) [12]: 44%
- Percent of subjects demonstrating robust improvement in Vanderbilt ADHD score (at least 40% decrease) [12]: 35%
- Percent of subjects with improvement in Vanderbilt ADHD score (at least 25% decrease) [12]: 47%
- Percent of subjects completing the dose escalation to 400 mg bid that show improvement in Vanderbilt ADHD scores (at least 25% decrease) [13]: 89%
- Percent of subjects completing the dose escalation to 400 mg bid that show robust improvement in Vanderbilt ADHD scores (at least 40% decrease) [13]: 44%
- Percent of subjects demonstrating robust improvement in Vanderbilt ADHD score (at least 40% decrease) [14]: 50%
- Percent of subjects with improvement in Vanderbilt ADHD score (at least 25% decrease) [14]: 75%
- Percent of subjects completing the dose escalation to 400 mg bid that show improvement in Vanderbilt ADHD scores (at least 25% decrease) [15]: 89%
- Percent of subjects completing the dose escalation to 400 mg bid that show robust improvement in Vanderbilt ADHD scores (at least 40% decrease) [15]: 56%
- Percent of subjects demonstrating robust improvement in Vanderbilt ADHD score (at least 40% decrease) (relative to pre-study (enrollment) baseline, Tier 1, Week 4, up to 200 mg bid): 56%
